Experimental data published in patent US8003687B2, “Esters of compounds in the leptomycin family” (Kosan Biosciences Incorporated, priority 2005, dated 2011).
Like-named read-outs stand apart in the source and are kept apart here.

How the values were obtained:
MCF-7 = assay: inhibition of tumor cell proliferation, MCF-7; format: cell-based, human
Protocol: (§1) The biological activity of compounds of this invention was evaluated by measuring their inhibitory effect on the proliferation of various tumor cell lines. MCF-7, A549, and SKOV-3 are human breast, lung, and ovary cancer cell lines, respectively. NCI/ADR is a multi-drug resistant breast cancer cell line. CCRF-CEM and CCRF-CEM/PTX are human leukemia cell lines, the latter being a paclitaxel-resistant subline.

NCI/ADR = assay: inhibition of tumor cell proliferation, NCI/ADR; format: cell-based; details: read-out: Tumor Cell Line (IC50, nM) NCI/ADR
Protocol: as §1

A549 = assay: inhibition of tumor cell proliferation, A549; format: cell-based, human
Protocol: as §1

SKOV-3 = assay: inhibition of tumor cell proliferation, SKOV-3; format: cell-based, human
Protocol: as §1

CCRF-CEM = assay: inhibition of tumor cell proliferation, CCRF-CEM; format: cell-based, human; details: read-out: Tumor Cell Line (IC50, nM) CCRF-CEM
Protocol: as §1

CCRF-CEM/PTX = assay: inhibition of tumor cell proliferation, CCRF-CEM/PTX; format: cell-based, human; details: read-out: Tumor Cell Line (IC50, nM) CCRF-CEM/PTX
Protocol: as §1

[1] = Homo sapiens, MCF7, read-out: Tumor Cell Line (IC50, nM) MCF-7
[2] = Homo sapiens, A549, read-out: Tumor Cell Line (IC50, nM) A549
[3] = Homo sapiens, SK-OV-3, read-out: Tumor Cell Line (IC50, nM) SKOV-3

Compound	IC50 (MCF-7; [1])	IC50 (NCI/ADR; Homo sapiens, NCI/ADR-RES)	IC50 (A549; [2])	IC50 (SKOV-3; [3])	IC50 (CCRF-CEM; Homo sapiens, CCRF-CEM)	IC50 (CCRF-CEM/PTX; Homo sapiens, CCRF-CEM)	also measured
CCC(=C/[C@H](C)C/C=C/C(C)=C/[C@@H](C)C(=O)[C@@H](C)[C@H](O)[C@@H](C)C/C(C)=C/C(=O)OCc1ccccc1)/C=C/[C@@H]1OC(=O)C=C[C@@H]1C [Compound 1]	3 nM	38 nM	5.3 nM	17 nM	2.7 nM	4.8 nM	
CCC(=C/[C@H](C)C/C=C/C(C)=C/[C@@H](C)C(=O)[C@@H](C)[C@H](O)[C@@H](C)C/C(C)=C/C(=O)OCC(=O)OC)/C=C/[C@@H]1OC(=O)C=C[C@@H]1C [Compound 2]	0.33 nM	5.2 nM	2.3 nM	5.3 nM	1.1 nM	1 nM	
CCC(=C/[C@H](C)C/C=C/C(C)=C/[C@@H](C)C(=O)[C@@H](C)[C@H](O)[C@@H](C)C/C(C)=C/C(=O)OCc1cccc2cccnc12)/C=C/[C@@H]1OC(=O)C=C[C@@H]1C [Compound 3]	3.7 nM	270 nM	5.3 nM	24 nM	5.6 nM	14 nM	
CCC(=C/[C@H](C)C/C=C/C(C)=C/[C@@H](C)C(=O)[C@@H](C)[C@H](O)[C@@H](C)C/C(C)=C/C(=O)O)/C=C/[C@@H]1OC(=O)C=C[C@@H]1C [LMB, Leptomycin B, reference compound]							IC50 (MCF-7; MCF7, human breast cancer cell line, read-out: Tumor Cell Line (IC50, nM) MCF-7): 0.29 nM; IC50 (NCI/ADR; Homo sapiens, NCI/ADR-RES, multi-drug resistant breast cancer cell line): 1 nM; IC50 (A549; A549, human lung cancer cell line, read-out: Tumor Cell Line (IC50, nM) A549): 0.3 nM; IC50 (SKOV-3; SK-OV-3, human ovary cancer cell line, read-out: Tumor Cell Line (IC50, nM) SKOV-3): 1.5 nM; IC50 (CCRF-CEM; CCRF-CEM, human leukemia cell line): 0.65 nM; IC50 (CCRF-CEM/PTX; CCRF-CEM, human leukemia cell line, paclitaxel-resistant subline): 0.41 nM
LMB methyl ester [Compound 4, reference compound]							IC50 (MCF-7; human breast cancer cell line, read-out: Tumor Cell Line (IC50, nM) MCF-7): 1.9 nM; IC50 (NCI/ADR; multi-drug resistant breast cancer cell line): 13.1 nM; IC50 (A549; human lung cancer cell line, read-out: Tumor Cell Line (IC50, nM) A549): 2.4 nM; IC50 (SKOV-3; human ovary cancer cell line, read-out: Tumor Cell Line (IC50, nM) SKOV-3): 8.2 nM; IC50 (CCRF-CEM; human leukemia cell line): 0.55 nM; IC50 (CCRF-CEM/PTX; human leukemia cell line, paclitaxel-resistant subline): 0.63 nM
